Test results from US20150157604A1, “PHARMACEUTICAL COMPOSITION FOR THE PROPHYLAXIS AND TREATMENT OF PSYCHOLOGICAL, BEHAVIORAL AND COGNITIVE DISORDERS” (LTD << VALENTA-INTELLEKT >>, priority 2012, published 2015).

What was measured:
cerebral edema = details: rats; second administration; cited from earlier work
[1] = tested on: dopamine concentration in the forebrain regions; details: cited from earlier work
[2] = tested on: patients with mixed dementia and patients with Alzheimer's disease; test: Study of pharmacological activity: half-year neurological study (MMSE, visual and aural-speech memory, clock drawing test, Schulte Table); assay type: in vivo, human
Excerpt: The subjects under the study have been 25 patients with mixed dementia and 12 patients with Alzheimer's disease. The average age of the patients is 70±3 years. Dementia has been diagnosed in accordance with the dementia criteria under ICD-10 [International statistic classification of diseases and problems relating to health. Tenth revision (ICD-10). V.1 (Part 1). Geneva: WHO, 1995; p. 315, 510-1]. Dimentia severity has been assessed according to Clinical Dementia Rating Scale—CDR [Hughes C P, Berg L, Danziger W L et al. A new clinical scale for the staging of dementia. Brit J Psychiatry 1982; 140: 566-72]. In the group of patients with mixed dementia it is 1.2±0.3, and in the group with Alzheimer's disease—1.1±0.36. All the patients have been subdivided into two groups. The first group has received […] of memantine once a day. The second group received capsules according to Example 4. A complex neurological study has been conducted with the patients for half a year, the study included brief evaluation of mental status (MMSE), a test for visual and aural-speech memory under the dementia scale, the clock drawing test as well as the test for attention—Schulte Table. The outcome has been processed with the use of the statistical package for social sciences (SPSS), Version 10.0.

[3] = cited from earlier work

Row | Compound | reduction of the volume of cerebral edema (cerebral edema) [times] | dopamine concentration ([1]; after a single dosing) | rise of dopamine concentration in the forebrain regions ([1]; during prolonged administration) [times] | increase of clock drawing test ([2]; in 6 months) | increase of total score of the mental status evaluation (MMSE) ([2]; in 6 months, patients with mixed dementia or Alzheimer's disease) | lowering of Schulte test ([2]; in 6 months, test for attention) | increase of visual memory ([2]; in 6 months, test under the dementia scale) | patients with positive therapeutic effect ([2]; patients with Alzheimer's disease) [%] | patients with positive therapeutic effect ([2]; patients with mixed dementia) [%] | side effects ([2]; patients, half-year study) | time to concentration peak in the brain ([3]; after a single dosing) | half-life ([3]; in vivo)
1 | COc1ccc2[nH]cc(CCNC(C)=O)c2c1 [melatonin, N-acetyl-5-methoxytriptamine] | 2 | – | – | – | – | – | – | – | – | – | – | –
2 | CC12CC3CC(C)(C1)CC(N)(C3)C2 [memantine, 1-amino-3,5-dimethyladamantan] | – | remains unchanged | ≥ 10 | 0.2±0.1 | 1.5±0.3 | 20.5±3.6 | 0.5±0.2 | 25 | 86 | increase in the intracranial pressure was observed | one | approximately 100 hours
